According to patent publication US6620828B2, “Thiazole compounds and pharmaceutical compositions for inhibiting protein kinases and methods for their use” (Agouron Pharmaceuticals, Inc., priority 1999, dated 2003):

Columns and labels:
Format in all cases: biochemical
[1] = molecular target: T1, phosphorylated VEGF-R2Δ50 (FLVK-P) (Homo sapiens, UniProt P35968, DEL940-989/E990V); experiment: VEGF-R2 coupled spectrophotometric (FLVK-P) assay; details: read-out: VEGF % inhibition at 20 μM, 20 μM; combinatorial library compounds
T1 construct: VEGF-R2Δ50 contains residues 806-939 and 990-1171; made in house; host or cells: baculovirus/insect cells
T1 sequence (P35968 with tags, fused parts or gaps DEL940-989/E990V limits assumed): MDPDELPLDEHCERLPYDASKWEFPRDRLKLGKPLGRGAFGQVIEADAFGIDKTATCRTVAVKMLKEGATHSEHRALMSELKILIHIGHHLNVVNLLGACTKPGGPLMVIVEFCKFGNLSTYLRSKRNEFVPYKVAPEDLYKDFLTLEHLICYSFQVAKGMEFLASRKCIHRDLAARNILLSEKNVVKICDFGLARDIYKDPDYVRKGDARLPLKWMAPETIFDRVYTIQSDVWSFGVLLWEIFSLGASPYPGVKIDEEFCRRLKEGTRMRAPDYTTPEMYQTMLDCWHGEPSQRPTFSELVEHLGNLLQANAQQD
In short: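 Baculovirus-expressed human VEGF-R2Δ50 (residues 806-939/990-1171, E990V) was autophosphorylated with 3 mM ATP, 40 mM MgCl2 for 2 h at 4° C. ADP formation was coupled via PK/LDH to NADH oxidation, read at 340 nm, with 5.1 mM poly(E4Y1), 1 mM ATP, 25 mM MgCl2, Hepes pH 7.5. Ki came from activity across compound concentrations.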

FL-CHK1 = molecular target: T2, FL-CHK1 (Homo sapiens, UniProt O14757); experiment: CHK1 assay; details: 20 μM; combinatorial library compounds
T2 construct: C-terminally His-tagged full-length human CHK1 (FL-CHK1); 6xHis (C); made in house; host or cells: baculovirus/insect cells
T2 sequence (O14757 1-476): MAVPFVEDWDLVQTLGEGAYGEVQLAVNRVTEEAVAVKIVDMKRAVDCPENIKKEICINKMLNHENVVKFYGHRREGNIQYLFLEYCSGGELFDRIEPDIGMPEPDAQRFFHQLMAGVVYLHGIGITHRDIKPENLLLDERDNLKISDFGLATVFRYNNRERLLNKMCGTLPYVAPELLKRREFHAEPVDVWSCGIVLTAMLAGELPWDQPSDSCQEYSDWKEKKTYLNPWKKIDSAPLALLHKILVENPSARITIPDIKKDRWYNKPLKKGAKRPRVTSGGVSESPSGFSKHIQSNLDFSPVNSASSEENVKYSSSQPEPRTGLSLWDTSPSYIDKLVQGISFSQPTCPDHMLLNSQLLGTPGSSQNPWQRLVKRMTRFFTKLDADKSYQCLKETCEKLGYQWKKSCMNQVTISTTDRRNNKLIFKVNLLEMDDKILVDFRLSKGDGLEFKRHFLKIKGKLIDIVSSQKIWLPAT
In short: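 Full-length human CHK1 with C-terminal 6×His tag, made in baculovirus/insect cells, 10 nM, phosphorylating 0.125 mM Syntide-2 with 0.15 mM ATP in 50 mM Tris pH 7.5, 25 mM MgCl2, 400 mM NaCl. PK/LDH-coupled NADH oxidation read at 340 nm. Ki from initial rates over varied compound concentrations.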

CDK2/Cyclin A complex = CDK2/Cyclin A complex (Homo sapiens, UniProt P24941); experiment: CDK2/Cyclin A assay; details: 1.0 μM; combinatorial library compounds
In short: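 Radiometric assay: 150 nM CDK2/cyclin A (insect-cell CDK2, truncated cyclin A) phosphorylates His-tagged Rb fragment (residues 386-928) with 25 μM ATP plus [32P]ATP, pH 7.4 HEPES, 2% DMSO, 30 °C for 20 min. Filter-captured product counted by phosphorimager; apparent Ki from competitive or tight-binding inhibition fits.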

CDK4/Cyclin D3 complex = molecular target: T3, CDK4/Cyclin D3 complex (Homo sapiens, UniProt P11802); experiment: CDK4/Cyclin D assay; details: 1.0 μM; combinatorial library compounds
T3 construct: made in house; host or cells: insect cells co-infected with baculovirus vectors
T3 sequence (P11802 whole entry): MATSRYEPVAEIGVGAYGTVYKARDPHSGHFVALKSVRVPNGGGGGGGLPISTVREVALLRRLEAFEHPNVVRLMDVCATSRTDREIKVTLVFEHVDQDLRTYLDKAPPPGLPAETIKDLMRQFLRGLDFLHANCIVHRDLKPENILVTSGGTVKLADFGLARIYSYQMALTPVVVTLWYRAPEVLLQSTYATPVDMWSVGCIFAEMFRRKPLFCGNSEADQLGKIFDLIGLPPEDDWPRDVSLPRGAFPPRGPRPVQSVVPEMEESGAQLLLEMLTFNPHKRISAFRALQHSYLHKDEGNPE
T3 sequence (P30281 whole entry partner): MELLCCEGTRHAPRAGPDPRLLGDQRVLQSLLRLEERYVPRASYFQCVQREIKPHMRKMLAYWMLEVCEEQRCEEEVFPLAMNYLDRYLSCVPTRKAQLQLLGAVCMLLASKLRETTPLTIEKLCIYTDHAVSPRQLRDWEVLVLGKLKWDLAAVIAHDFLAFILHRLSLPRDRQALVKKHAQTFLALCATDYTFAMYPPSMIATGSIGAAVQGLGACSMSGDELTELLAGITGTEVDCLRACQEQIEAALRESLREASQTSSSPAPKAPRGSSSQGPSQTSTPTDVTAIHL
In short: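 Insect-cell-expressed CDK4/cyclin D3 (50 nM) phosphorylating His-tagged Rb fragment (residues 386-928) with 25 μM [^32P]ATP in HEPES pH 7.4, MgCl2, 2% DMSO; 20 min at 30 °C, EDTA stop. Filter-captured 32P by phosphorimager; apparent Ki from competitive or tight-binding inhibition fits.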

Row | Structure (SMILES) | inhibition at 20 µM [1] [%] | inhibition at 20 µM (FL-CHK1) [%] | inhibition at 1 µM (CDK2/Cyclin A complex) [%] | inhibition at 1 µM (CDK4/Cyclin D3 complex) [%]
1 | CC(C)c1ccc(Nc2nc(N)c(-c3nc(-c4ccc(Cl)c([N+](=O)[O-])c4)cs3)s2)cc1 | 7 | 23.5 | 14.2 | 71.5
2 | CC(C)c1ccc(Nc2nc(N)c(-c3nc(-c4ccc(-c5ccc(Cl)cc5Cl)o4)cs3)s2)cc1 | 3 | -7.9 | 15.1 | 49.7
3 | COc1ccccc1-c1csc(-c2sc(Nc3ccc(C(C)C)cc3)nc2N)n1 | -13 | 15.6 | 6.3 | 53.3
4 | Cc1ccc(-c2csc(-c3sc(Nc4ccc(C(C)C)cc4)nc3N)n2)cc1 | -2 | 0.8 | 14.2 | 55.9
5 | COc1ccc(-c2csc(-c3sc(Nc4ccc(C(C)C)cc4)nc3N)n2)c(OC)c1 | -10 | 1.8 | -22.6 | 38.2
6 | CC(C)c1ccc(Nc2nc(N)c(-c3nc(-c4ccc(Cl)cc4)cs3)s2)cc1 | -2 | -0.2 | 10.8 | 53.1
7 | COc1ccc(OC)c(-c2csc(-c3sc(Nc4ccc(C(C)C)cc4)nc3N)n2)c1 | 12 | -5.2 | 12.2 | 79.4
8 | CCOC(=O)c1cc(-c2csc(-c3sc(Nc4ccc(C(C)C)cc4)nc3N)n2)on1 | 9 | -5.7 | 15 | 28.7
9 | CC(C)c1ccc(Nc2nc(N)c(-c3nc(-c4ccccc4[N+](=O)[O-])cs3)s2)cc1 | 16 | 32.2 | 17.7 | 63
10 | CC(C)c1ccc(Nc2nc(N)c(-c3nc(-c4cc(-c5ccc(Cl)c(Cl)c5)no4)cs3)s2)cc1 | -5 | -9 | 18.5 | -26.5
11 | CCCCCc1ccc(-c2csc(-c3sc(Nc4ccc(C(C)C)cc4)nc3N)n2)cc1 | -14 | 0.7 | 3.6 | 10.3
12 | CC(=O)Oc1ccccc1-c1csc(-c2sc(Nc3ccc(C(C)C)cc3)nc2N)n1 | 14 | -12.8 | 6.6 | 44.3
13 | CC(C)c1ccc(Nc2nc(N)c(-c3nc(-c4c(Cl)cc(C(F)(F)F)cc4Cl)cs3)s2)cc1 | 31 | 14.8 | 26 | 86.2
14 | CC(C)c1ccc(Nc2nc(N)c(-c3nc(-c4ccc(F)cc4F)cs3)s2)cc1 | 46 | 19.7 | 30.6 | 91.5
15 | CCN(CC)c1ccc(-c2csc(-c3sc(Nc4ccc(C(C)C)cc4)nc3N)n2)cc1 | 9 | -5.3 | 12.2 | 73
16 | CC(C)c1ccc(Nc2nc(N)c(-c3nc(-c4csc5ccccc45)cs3)s2)cc1 | 25 | -4.3 | 9.3 | 72
17 | CC(C)c1ccc(Nc2nc(N)c(-c3nc(-c4cc(C(=O)C(Cl)(Cl)Cl)n(C)c4)cs3)s2)cc1 | -3 | 0.7 | 10.1 | 37.8
18 | CC(C)c1ccc(Nc2nc(N)c(-c3nc(-c4cc5cc(Cl)ccc5o4)cs3)s2)cc1 | -11 | 3.4 | 17 | 33.2
19 | CC(C)c1ccc(Nc2nc(N)c(-c3nc(-c4cccc(Br)c4)cs3)s2)cc1 | 5 | 12 | 14.6 | 48.1
